ChEMBL document CHEMBL1134341, “Calculation of the hydrophobicity of platinum drugs” (J Med Chem, 2001)

Experiments:
[1] = Octanol-water partition coefficient (logP) value for platinum compounds; assay type: physicochemical
[2] = The observed [pt] (mmol/mg protein) value for platinum content in cells; assay type: ADME

Q: What does the source list for “AMMONIO(DICHLORO)[DI(PROYLCARBONYLOXY)]PLATINUM(CYCLOHEXYL)AMMONIUM”?
A: logP [1]: 0.47; Observed [pt] [2]: 13.5 mM (mg of protein)-1

Q: For “AMMONIO(DICHLORO)[DI(METHYLCARBONYLOXY)]PLATINUM(CYCLOHEXYL)AMMONIUM”, which logP [1] is on record?
A: -0.47

Q: And the “Observed [pt]” value [2]?
A: 3.5 mM (mg of protein)-1

Q: Which logP [1] does the source give for CISPLATIN here?
A: -2.36

Q: And the “Observed [pt]” value [2]?
A: 1 mM (mg of protein)-1

Q: What does the source list for “AMMONIO(DICHLORO)PLATINUM(CYCLOHEXYL)AMMONIUM”?
A: logP [1]: -0.87; Observed [pt] [2]: 1.9 mM (mg of protein)-1

Q: Which logP [1] does the source give for “AMMONIO(DICHLORO)[DI(BUTYLCARBONYLOXY)]PLATINUM(CYCLOHEXYL)AMMONIUM” here?
A: 0.86

Q: What about the “Observed [pt]” value [2] of the same substance?
A: 17 mM (mg of protein)-1
